What was measured:
Human JNK2α2 = Human JNK2α2 (Homo sapiens (Human), UniProt P45984); test: JNK assay in vitro, phosphorylation of GST-ATF2 (19-96) with [γ-33P] ATP; assay type: biochemical; conditions: Human JNK2α2, 1 nM enzyme, 1 μM ATF2, 8 μM ATP; read-out: JNK2 − IC50
Protocol: (§1) JNK activity was measured by phosphorylation of GST-ATF2 (19-96) with [γ-^33P] ATP. […] Human JNK2α2 assay contains 1 nM enzyme, 1 μM ATF2, 8 μM ATP with 1 μCi [γ-^33P] ATP. Human JNK1α1 assay contains 2 nM enzyme, 1 μM ATF2, 6 μM ATP with 1 μCi [γ-^33P] ATP. Human JNK3 (Upstate Biotech #14-501M) assay contains 2 nM enzyme, 1 μM ATF2, 4 μM ATP with 1 μCi [γ-^33P] ATP. The enzyme assay was carried out in the presence or absence of several compound concentrations. JNK and compound were pre-incubated for 10 min, followed by initiation of the enzymatic reaction by adding ATP and the substrate. The reaction mixture was incubated at 30° C. for 30 min. At the end of incubation, the reaction was terminated by transferring 25 μl of the reaction mixture to 150 μl of 10% glutathione Sepharose® slurry (Amersham #27-4574-01) containing 135 mM EDTA. The reaction product was captured on the affinity resin, and washed on a filtration plate (Millipore, MABVNOB50) with phosphate buffered saline for six times to remove free radionucleotide. The incorporation of ^33P into ATF2 was quantified on a microplate scintillation counter (Packard Topcount). Compound inhibition potency on JNK was measured by IC50 value generated from ten concentration inhibition curves fitted into the 3-parameter model: % inhibition=Maximum/(1+(IC50/[Inhibitor])^slope). Data were analyzed on Microsoft Excel for parameter estimation.

Human JNK1α1 = Human JNK1α1 (Homo sapiens (Human), UniProt P45983); test: JNK assay in vitro, phosphorylation of GST-ATF2 (19-96) with [γ-33P] ATP; assay type: biochemical; conditions: Human JNK1α1, 2 nM enzyme, 1 μM ATF2, 6 μM ATP; read-out: JNK1 − IC50
Sequence of Human JNK1α1 (P45983 other isoform, or with tags, fused parts or gaps): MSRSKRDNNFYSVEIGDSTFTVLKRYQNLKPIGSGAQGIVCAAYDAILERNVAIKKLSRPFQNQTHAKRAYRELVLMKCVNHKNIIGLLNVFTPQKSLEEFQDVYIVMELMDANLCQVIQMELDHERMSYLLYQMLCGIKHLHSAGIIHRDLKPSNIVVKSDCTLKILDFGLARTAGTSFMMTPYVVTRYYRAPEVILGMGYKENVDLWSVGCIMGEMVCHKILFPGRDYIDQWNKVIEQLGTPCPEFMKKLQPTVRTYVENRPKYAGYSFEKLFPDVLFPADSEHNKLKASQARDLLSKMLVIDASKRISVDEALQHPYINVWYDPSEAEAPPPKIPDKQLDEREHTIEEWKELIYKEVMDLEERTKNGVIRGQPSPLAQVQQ
Protocol: as §1

Sequence of Human JNK2α2 (P45984 whole entry): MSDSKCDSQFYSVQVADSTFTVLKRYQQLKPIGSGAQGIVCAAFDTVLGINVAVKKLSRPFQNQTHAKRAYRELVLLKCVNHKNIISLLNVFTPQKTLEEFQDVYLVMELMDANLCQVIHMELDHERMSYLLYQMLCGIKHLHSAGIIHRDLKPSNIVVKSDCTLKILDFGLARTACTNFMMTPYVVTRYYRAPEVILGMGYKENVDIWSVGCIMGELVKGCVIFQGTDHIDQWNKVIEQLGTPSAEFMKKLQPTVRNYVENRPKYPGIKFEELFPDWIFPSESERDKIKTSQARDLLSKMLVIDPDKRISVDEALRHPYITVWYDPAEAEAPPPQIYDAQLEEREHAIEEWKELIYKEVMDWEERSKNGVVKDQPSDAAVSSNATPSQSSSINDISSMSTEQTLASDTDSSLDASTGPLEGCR

Row | Structure (SMILES) | IC50 (Human JNK2α2) [nM] | melting point [°C] | IC50 (Human JNK1α1) [nM]
1 | CC(C)(O)c1cccn2c(-c3ccnc(N[C@H]4CC[C@H](CS(C)(=O)=O)CC4)n3)cnc12 [Compound 1, 2-{3-[2-(4-methanesulfonylmethyl-cyclohexylamino)-pyrimidin-4-yl]-imidazo[1,2-a]pyridin-8-yl}-propan-2-ol] | 295 | 223 to 224 | –
2 | CC(C)(O)c1cccn2c(-c3ccnc(N[C@H]4CC[C@H](C(=O)N5CCC(O)CC5)CC4)n3)cnc12 [Compound 2, (4-{4-[8-(1-hydroxy-1-methyl-ethyl)-imidazo[1,2-a]pyridin-3-yl]-pyrimidin-2-ylamino}-cyclohexyl)-(4-hydroxy-piperidin-1-yl)-methanone] | 369 | 188 to 190 | –
3 | CC(C)(O)c1cccn2c(-c3ccnc(N[C@H]4CC[C@H](NS(C)(=O)=O)CC4)n3)cnc12 [Compound 3, N-(4-{4-[8-(1-Hydroxy-1-methyl-ethyl)-imidazo[1,2-a]pyridine-3-yl]-pyrimidin-2-ylamino}-cyclohexyl)-methanesulfonamide] | – | 249 to 250 | –
4 | CN(C)S(=O)(=O)N[C@H]1CC[C@H](Nc2nccc(-c3cnc4c(C(C)(C)O)cccn34)n2)CC1 [Compound 4, N-(4-{4-[8-(1-Hydroxy-1-methyl-ethyl)-imidazo[1,2-a]pyridine-3-yl]-pyrimidin-2-ylamino}-cyclohexyl)-(N,N-dimethylamino)sulfonamide] | 124 | > 300 | –
5 | CS(=O)(=O)CCCOc1cccn2c(-c3ccnc(N[C@H]4CC[C@H](C(=O)N5CCC(O)CC5)CC4)n3)cnc12 [Compound 5, (4-Hydroxy-piperidin-1-yl)-(4-{4-[8-(3-methanesulfonyl-propoxy)-imidazo[1,2-a]pyridin-3-yl]-pyrimidin-2-ylamino}-cyclohexyl)-methanone] | 50.3 | 258 to 259 | 21.6
6 | O=C([C@H]1CC[C@H](Nc2nccc(-c3cnc4c(OCc5ccccc5)cccn34)n2)CC1)N1CCC(O)CC1 [Compound 6, {4-[4-(8-Benzyloxy-imidazo[1,2-a]pyridin-3-yl)-pyrimidin-2-ylamino]-cyclohexyl}-(4-hydroxy-piperidin-1-yl)-methanone] | 55.9 | 210 to 212 | 33.3
7 | CS(=O)(=O)N[C@H]1CC[C@H](Nc2nccc(-c3cnc4c(OCc5ccccc5)cccn34)n2)CC1 [Compound 7, N-{4-[4-(8-benzyloxy-imidazo[1,2-a]pyridin-3-yl)-pyrimidin-2-ylamino]-cyclohexyl}-methanesulfonamide] | 52.7 | 236.9 to 241 | 23.7
8 | CCOC(=O)[C@H]1CC[C@H](Nc2nccc(-c3cnc4c(OCc5ccccc5)cccn34)n2)CC1 [Compound 8, 4-[4-(8-benzyloxy-imidazo[1,2-a]pyridine-3-yl)-pyrimidin-2-ylamino]-cyclohexanecarboxylic acid ethyl ester] | 104 | 147 to 149 | 48.9
9 | O[C@H]1CC[C@H](Nc2nccc(-c3cnc4c(OCc5ccccc5)cccn34)n2)CC1 [Compound 9, 4-[4-(8-Benzyloxy-imidazo[1,2-a]pyridin-3-yl)-pyrimidin-2-yl-amino]-cyclohexanol] | 49.4 | 236 to 238 | 26.9
10 | CS(=O)(=O)N[C@H]1CC[C@H](Nc2nccc(-c3cnc4ccccn34)n2)CC1 [Compound 10, N-[4-(4-Imidazo[1,2-a]pyridin-3-yl-pyrimidin-2-ylamino)-cyclohexyl]-methanesulfonamide] | 214 | 259 to 261 | 56.7
11 | O[C@H]1CC[C@H](Nc2nccc(-c3cnc4ccccn34)n2)CC1 [Compound 11, 4-(4-Imidazo[1,2-a]pyridin-3-yl-pyrimidin-2-ylamino)-cyclohexanol] | 254 | – | 86.6
